Data: ChEMBL document CHEMBL1201862, “PubChem BioAssay data set” (2004)
The source made the active and inactive calls.

Assays:
[1] = target: T1, Carboxy-terminal domain RNA polymerase II polypeptide A small phosphatase 1 (Homo sapiens, UniProt Q9GZU7); assay: CTDSP1 inhibitors, concentration-response, biochemical, absorbance readout, ultra-high-throughput screen actives (AID 540297); format: functional
T1 sequence (Q9GZU7 whole entry): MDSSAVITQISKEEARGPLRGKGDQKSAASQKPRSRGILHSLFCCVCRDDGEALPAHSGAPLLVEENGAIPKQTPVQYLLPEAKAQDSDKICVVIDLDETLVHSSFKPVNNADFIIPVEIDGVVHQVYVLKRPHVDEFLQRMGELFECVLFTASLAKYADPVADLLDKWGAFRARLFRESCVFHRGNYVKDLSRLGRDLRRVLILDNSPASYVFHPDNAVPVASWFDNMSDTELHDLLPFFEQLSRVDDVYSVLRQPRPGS

[2] = viability loss in THP-1 monocytes – THP-1 cells, cytotoxicity control for Vif-APOBEC3G degradation inhibitor project, dose response (AID 1117359); format: functional; settings: THP-1
[3] = Luminescence Cell-Based Dose Confirmation HTS to Identify Inhibitors of Platelet Dense Granule Release. [Related pubchem assays: 1663 (Primary HTS), 1678 (Summary of Project)]; format: functional
[4] = viability of uninfected HEp-2 cells – cell-based, HTS, cytotoxicity control for RSV inhibitor project, dose response (AID 2410); format: functional; settings: human respiratory syncytial virus
[5] = target: Luciferin 4-monooxygenase (Photinus pyralis, UniProt P08659); assay: inhibition of purified Photinus pyralis luciferase – biochemical, luminescence, dose response (AID 1891)
Sequence of Luciferin 4-monooxygenase (P08659 whole entry): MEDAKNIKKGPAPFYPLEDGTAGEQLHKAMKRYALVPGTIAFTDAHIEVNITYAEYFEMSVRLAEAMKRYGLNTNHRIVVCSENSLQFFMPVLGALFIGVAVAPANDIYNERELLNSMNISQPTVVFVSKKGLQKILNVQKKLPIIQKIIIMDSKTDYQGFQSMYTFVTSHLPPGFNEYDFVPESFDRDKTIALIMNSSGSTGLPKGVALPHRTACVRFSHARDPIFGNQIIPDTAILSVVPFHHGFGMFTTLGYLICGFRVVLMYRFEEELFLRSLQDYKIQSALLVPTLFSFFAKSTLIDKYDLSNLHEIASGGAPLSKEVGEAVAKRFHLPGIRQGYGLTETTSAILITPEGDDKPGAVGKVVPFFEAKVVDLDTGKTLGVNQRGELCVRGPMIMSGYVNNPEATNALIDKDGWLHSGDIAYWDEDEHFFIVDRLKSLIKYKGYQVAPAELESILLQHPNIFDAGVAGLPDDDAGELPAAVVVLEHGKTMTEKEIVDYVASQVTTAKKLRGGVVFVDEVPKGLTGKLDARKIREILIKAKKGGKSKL

[6] = target: FAD-linked sulfhydryl oxidase ALR (Homo sapiens, UniProt P55789); assay: ALR-catalysed DTT oxidation blockers – biochemical, H2O2 detection, luminescence, cherry-pick, dose response (AID 493248)
Sequence of FAD-linked sulfhydryl oxidase ALR (P55789 whole entry): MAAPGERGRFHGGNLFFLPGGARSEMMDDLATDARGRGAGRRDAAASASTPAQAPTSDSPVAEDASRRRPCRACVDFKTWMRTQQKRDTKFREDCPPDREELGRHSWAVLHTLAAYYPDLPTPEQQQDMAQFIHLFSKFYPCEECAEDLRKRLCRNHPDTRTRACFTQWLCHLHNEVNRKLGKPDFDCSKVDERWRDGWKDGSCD

Large T antigen = Large T antigen (Simian virus 40, UniProt P03070); format: functional, Betapolyomavirus macacae;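 note: Confirmatory-stage PubChem screen for compounds that inhibit SV40 T antigen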
Sequence of Large T antigen (P03070 whole entry): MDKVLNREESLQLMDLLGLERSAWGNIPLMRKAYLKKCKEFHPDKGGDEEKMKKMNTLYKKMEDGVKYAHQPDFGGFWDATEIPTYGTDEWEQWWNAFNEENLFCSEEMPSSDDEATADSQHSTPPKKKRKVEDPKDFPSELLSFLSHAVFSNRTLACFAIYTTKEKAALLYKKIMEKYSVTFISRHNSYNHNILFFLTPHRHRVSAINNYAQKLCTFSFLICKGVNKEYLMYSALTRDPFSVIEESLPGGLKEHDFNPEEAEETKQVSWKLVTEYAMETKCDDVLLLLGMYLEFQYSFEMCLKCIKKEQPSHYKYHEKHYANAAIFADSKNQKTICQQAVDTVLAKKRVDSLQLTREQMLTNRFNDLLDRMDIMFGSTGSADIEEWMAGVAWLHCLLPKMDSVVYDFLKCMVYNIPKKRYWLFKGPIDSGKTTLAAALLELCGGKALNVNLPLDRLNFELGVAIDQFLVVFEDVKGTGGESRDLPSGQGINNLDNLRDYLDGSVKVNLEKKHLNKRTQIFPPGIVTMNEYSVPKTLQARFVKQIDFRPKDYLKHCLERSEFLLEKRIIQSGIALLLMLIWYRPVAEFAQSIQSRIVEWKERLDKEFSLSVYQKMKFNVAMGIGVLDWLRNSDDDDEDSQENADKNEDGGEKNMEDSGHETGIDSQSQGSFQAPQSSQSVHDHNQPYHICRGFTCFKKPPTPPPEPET

[7] = P. falciparum Dd2 growth inhibitors, dose response, SYBR Green, cherry-picked samples (AID 1159567); format: functional, cell-based
Genome polyprotein = Genome polyprotein (dengue virus type 2, UniProt P29990); assay: flavivirus cap methylation enzyme inhibition – biochemical, confirmation dose response, primary screen (AID 588689); format: functional
Sequence of Genome polyprotein (P29990 2492-3391 limits assumed): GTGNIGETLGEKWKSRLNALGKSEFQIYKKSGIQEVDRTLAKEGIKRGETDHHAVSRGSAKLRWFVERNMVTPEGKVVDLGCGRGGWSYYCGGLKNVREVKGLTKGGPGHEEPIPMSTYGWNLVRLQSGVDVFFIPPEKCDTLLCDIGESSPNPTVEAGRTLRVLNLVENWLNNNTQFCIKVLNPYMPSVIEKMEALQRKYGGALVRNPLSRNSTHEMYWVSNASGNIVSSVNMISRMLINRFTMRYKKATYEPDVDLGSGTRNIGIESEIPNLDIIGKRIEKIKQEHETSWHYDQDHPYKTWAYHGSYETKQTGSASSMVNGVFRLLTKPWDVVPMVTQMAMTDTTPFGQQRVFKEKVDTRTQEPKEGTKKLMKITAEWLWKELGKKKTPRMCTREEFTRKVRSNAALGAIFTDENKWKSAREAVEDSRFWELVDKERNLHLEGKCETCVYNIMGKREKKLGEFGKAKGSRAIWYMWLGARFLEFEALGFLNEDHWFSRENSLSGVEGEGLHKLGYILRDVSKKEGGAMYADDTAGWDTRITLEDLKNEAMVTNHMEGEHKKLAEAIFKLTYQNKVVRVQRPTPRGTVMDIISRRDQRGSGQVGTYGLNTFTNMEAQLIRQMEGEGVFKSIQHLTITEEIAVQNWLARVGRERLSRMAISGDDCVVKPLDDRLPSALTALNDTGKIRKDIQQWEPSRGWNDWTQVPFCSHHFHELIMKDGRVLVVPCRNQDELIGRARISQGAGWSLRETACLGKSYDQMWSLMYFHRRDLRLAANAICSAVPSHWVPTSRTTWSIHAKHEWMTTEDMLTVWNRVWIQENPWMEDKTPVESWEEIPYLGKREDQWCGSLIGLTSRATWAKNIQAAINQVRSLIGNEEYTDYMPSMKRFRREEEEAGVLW

Nonstructural protein 1 = Nonstructural protein 1 (Influenza A virus, UniProt Q194T2); format: functional, Influenza A virus (A/California/07/2009(H1N1))
Sequence of Nonstructural protein 1 (Q194T2 whole entry): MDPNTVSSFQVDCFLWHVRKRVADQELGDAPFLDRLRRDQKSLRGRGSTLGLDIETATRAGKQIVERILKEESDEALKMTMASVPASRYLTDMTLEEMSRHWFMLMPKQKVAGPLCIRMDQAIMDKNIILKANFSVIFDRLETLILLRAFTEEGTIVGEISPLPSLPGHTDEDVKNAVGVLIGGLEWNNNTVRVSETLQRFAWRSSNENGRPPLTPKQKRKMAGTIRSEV

[8] = target: T2, Rac GTPase-activating protein 1 (Homo sapiens, UniProt Q9H0H5); assay: blockers of MgcRacGAP-driven Rac1 GTP hydrolysis – biochemical, ADP Hunter fluorescence, primary and confirmatory, confirmation (AID 624330); format: functional
T2 sequence (Q9H0H5 whole entry): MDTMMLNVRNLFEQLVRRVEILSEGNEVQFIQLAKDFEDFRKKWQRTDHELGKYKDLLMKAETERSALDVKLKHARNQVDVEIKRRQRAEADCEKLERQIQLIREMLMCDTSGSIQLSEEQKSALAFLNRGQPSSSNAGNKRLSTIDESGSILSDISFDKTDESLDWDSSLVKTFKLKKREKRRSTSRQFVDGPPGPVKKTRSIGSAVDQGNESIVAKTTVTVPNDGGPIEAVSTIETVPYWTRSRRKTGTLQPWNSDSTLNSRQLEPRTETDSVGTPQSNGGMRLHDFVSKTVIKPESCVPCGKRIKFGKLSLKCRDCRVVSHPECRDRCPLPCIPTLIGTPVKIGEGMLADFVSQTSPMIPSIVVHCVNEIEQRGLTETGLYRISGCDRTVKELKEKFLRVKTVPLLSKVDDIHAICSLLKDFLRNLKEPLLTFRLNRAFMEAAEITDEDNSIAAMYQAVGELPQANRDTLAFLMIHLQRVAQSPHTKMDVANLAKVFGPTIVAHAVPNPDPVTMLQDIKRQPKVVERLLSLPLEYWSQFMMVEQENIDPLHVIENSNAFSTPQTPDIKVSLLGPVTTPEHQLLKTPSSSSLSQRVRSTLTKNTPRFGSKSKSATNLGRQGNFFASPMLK

INS1 = assay: INS-1E survival protection against cytokine death – cell-based, luminescence, retest, dose response (AID 449756); format: functional; settings: Rattus norvegicus;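 note: cell death triggered by IL-1 beta plus TNF-alpha plus IFN-gamma mixture; protective hits raise ATP signal compared with cytokine alone wells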
[9] = system: Streptococcus sp. 'group A'; assay: Streptococcus pyogenes SK(-)GAS viability under kanamycin – luminescence, BacTiterGlo, confirmation, counter-screen for streptokinase expression inhibitor project, dose response (AID 1900); format: functional, organism-based
Streptokinase A = target: T3, Streptokinase A (Streptococcus pyogenes serotype M1, UniProt P10520); assay: viability-normalized secreted streptokinase activity reduction – plasminogen activation absorbance, OD405, dose response (AID 1914); format: functional, Streptococcus pyogenes M1 GAS;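 note: secreted streptokinase activity via plasminogen activation per viability signal from cell pellet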
T3 sequence (P10520 whole entry): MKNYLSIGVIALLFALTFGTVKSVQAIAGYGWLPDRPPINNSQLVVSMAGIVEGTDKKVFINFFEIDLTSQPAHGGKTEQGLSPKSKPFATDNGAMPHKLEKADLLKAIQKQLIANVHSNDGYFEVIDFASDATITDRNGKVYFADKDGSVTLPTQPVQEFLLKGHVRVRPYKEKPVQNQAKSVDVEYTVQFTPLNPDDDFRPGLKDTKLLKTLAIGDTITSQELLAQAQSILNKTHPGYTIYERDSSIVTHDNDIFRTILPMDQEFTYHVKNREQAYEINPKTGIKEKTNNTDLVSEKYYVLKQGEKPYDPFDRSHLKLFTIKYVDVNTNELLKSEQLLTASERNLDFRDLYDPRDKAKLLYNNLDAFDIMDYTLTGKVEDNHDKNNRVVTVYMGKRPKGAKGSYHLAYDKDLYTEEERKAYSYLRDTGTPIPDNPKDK

[10] = viability of PTEN-deleted HCT116 cells – cell-based, HCT116 PTEN knockout, dose response (AID 1047); format: functional;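 note: HCT116 colon tumor cells with PTEN knocked out; cells exposed to compound for 60 hours before readout; potency for loss of cell viability measured by luminescence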
Streptococcus = assay: GAS UMAA2166 growth inhibition – luminescence, BacTiterGlo, counter-screen for streptokinase expression inhibitor project, dose response (AID 1915); format: functional, organism-based;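 note: potency for reduction of bacterial viability or growth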
[11] = viability of HCT116 lacking mutant beta-catenin – cell-based, human colon tumor, dose response (AID 1045); format: functional;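 note: HCT116 colon tumor cells with beta catenin knocked out; cells exposed to compound for 60 hours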
[12] = NIH3T3 cell viability loss – ATP luminescence, mouse fibroblasts, counter-screen, dose response (AID 2010); format: functional, cell-based;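 note: cells exposed to compound for about 90 hours before reading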
[13] = Trypanosoma cruzi growth suppression in host cells – NIH3T3 host cells, beta-gal luminescence, confirmation (AID 2044); format: functional, cell-based;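 note: intracellular parasites grown in NIH/3T3 mouse fibroblasts as host cells; luminescent beta-galactosidase reporter signal from transgenic T. cruzi replicating inside host cells; inhibitors lower the luminescence signal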

## COc1ccc(Cl)cc1C=CC=NNC(=O)c1ccncc1
[1]
  IC50: 18.9 µM (active)

## Cc1ccccc1CCNC(=O)c1ccc(Cl)c(S(=O)(=O)N2CC(C)OC(C)C2)c1 (centres undefined)
[2]
  CC50: > 40 µM (active)

## C/C(=N\NC(=O)c1ccc(NS(=O)(=O)c2cccs2)cc1)c1ccc2ccccc2c1
[3]
  EC50: > 112 µM (not active)
[4]
  CC50: 16.7 µM (active)
[5]
  EC50: > 112 µM (not active)

## O=C(CN(CCCN1CCOCC1)C(=O)Cn1nnc(-c2ccc(F)cc2)n1)NC1CCCCC1
[3]
  EC50: > 112 µM (not active)
[5]
  EC50: > 112 µM (not active)

## COc1ccc(N=Nc2c(N)n[nH]c2N)cc1
[6]
  AC50: 17 µM (active)
Large T antigen
  IC50: 12 µM (active)

## COc1ccc2c3c([nH]c2c1)[C@@H](CO)N(C(=O)C1CCCCC1)CC31CCN(Cc2nccs2)CC1
[7]
  AC50: 4.44 µM (active)

## O=C(c1ccccc1)c1ccc2[nH]c(-c3ccc(NC(=O)c4ccccc4F)cc3)nc2c1
[3]
  EC50: > 112 µM (not active)
[5]
  EC50: > 112 µM (not active)

## N#Cc1c(/N=C/c2ccc(-c3ccccc3C(=O)O)o2)sc2c1CCCC2
[1]
  IC50: 9.17 µM (active)

## O=C(CCN1C(=O)/C(=C/c2ccc3c(c2)OCO3)SC1=S)Nc1cccc(C(=O)O)c1
Genome polyprotein
  IC50: 47 µM (active)
[1]
  IC50: 6.78 µM (active)

## CC1=NN(c2ccccc2)C(=O)/C1=C\c1sccc1C
Nonstructural protein 1
  IC50: > 100 µM (active)

## O=C1NN(c2cccc(Br)c2)C(=O)/C1=C\c1ccc(O)cc1
Genome polyprotein
  IC50: > 100 µM (active)
Large T antigen
  IC50: 17.2 µM (active)

## COc1ccc(-c2ccc3c(c2)[C@H]2[C@H](CCN2Cc2ccncc2)[C@@H](CO)N3)cc1
[7]
  AC50: 7.26 µM (active)

## Oc1ccccc1C=NCCN1CCN(CCN=Cc2ccccc2O)C1c1ccccc1O (centres undefined)
Nonstructural protein 1
  IC50: 1.75 µM (active)

## COc1ccc2c3c(n(C)c2c1)[C@@H](CO)N(Cc1ccccc1F)CC31CCN(CC2CC2)CC1
[7]
  AC50: 2.61 µM (active)

## O=C(O)c1ccc(CNc2ccccc2C(=O)O)cc1
[1]
  IC50: 25.3 µM (active)

## CCc1c(C)nc(N)nc1N1N=C1SC(C(C)=O)C(C)=O
Large T antigen
  IC50: 95.9 µM (active)
[8]
  IC50: 12.5 µM (active)

## Cc1ccc2[nH]c(/C(C#N)=C/c3ccc(-c4ccccc4C(=O)O)o3)nc2c1
[1]
  IC50: 17 µM (active)

## COc1ccc(NC2CCCN(C(=O)c3c(C)noc3C)C2)cc1 (centres undefined)
[6]
  AC50: 3.46 µM (active)
Large T antigen
  IC50: 24 µM (active)

## Cc1ccc(C2CC(c3ccccc3)=NN2C(=O)CSc2nnc(-c3ccc(Cl)cc3)o2)o1 (centres undefined)
[3]
  EC50: > 112 µM (not active)
[5]
  EC50: > 112 µM (not active)

## CN1/C(=C\C(=S)NC(=O)c2ccccc2Cl)C(C)(C)c2ccccc21
Nonstructural protein 1
  IC50: 29.3 µM (active)
INS1
  AC50: 8.03 µM (active)

## N/C(=N\[N+](=O)[O-])N/N=C/c1ccc(O)cc1
Large T antigen
  IC50: > 100 µM (active)
[8]
  IC50: 20.4 µM (active)

## O=C1c2ccccc2C(Nc2ccc3c(c2)OCO3)N1Cc1ccco1 (centres undefined)
[3]
  EC50: > 112 µM (not active)
[5]
  EC50: > 112 µM (not active)

## O=C(Oc1ccc(-c2cnc3ccccc3n2)cc1)c1ccc(Cl)c([N+](=O)[O-])c1
[4]
  CC50: 25.1 µM (active)
[9]
  EC50: 11.5 µM (active)
Streptokinase A
  EC50: > 150 µM (not active)
[10]
  EC50: 48.9 µM (active)
Streptococcus
  EC50: 114 µM (active)
[11]
  EC50: 34.6 µM (active)

## O=C(Nc1cccc(N2CCCC2)c1)c1cccs1
[12]
  EC50: > 60 µM (not active)
[3]
  EC50: > 112 µM (not active)
[13]
  EC50: 4.67 µM (active)
[5]
  EC50: > 112 µM (not active)

## C=C(C)CNC(=S)N/N=C(\C)c1ccc(OC)cc1
[3]
  EC50: 30.5 µM (active)
[5]
  EC50: > 112 µM (not active)

## COc1ccc(C#Cc2ccc3c(c2)[C@@H]2[C@@H](CCN2C(=O)C2CC2)[C@H](CO)N3)cc1
[7]
  AC50: 5.56 µM (active)

## COC(=O)c1ccc(C)c(NC(=O)CSc2sc3c(O)cc(=O)[nH]c3c2C#N)c1
[1]
  IC50: 3.04 µM (active)

## CC(=O)Nc1ccccc1O
Large T antigen
  IC50: 6.2 µM (active)

## CC1C/C(=C/c2ccco2)C(=O)/C(=C/c2ccco2)C1 (centres undefined)
[2]
  CC50: > 40 µM (active)

## CC/C(=N\NC(=O)CCC(=O)NCc1ccccc1)c1ccc(O)cc1
Large T antigen
  IC50: 34.6 µM (active)

## CCc1ccc(-c2cc(C)no2)cc1S(=O)(=O)N1CCN(c2ccccc2OC)CC1
[3]
  EC50: > 112 µM (not active)
[5]
  EC50: > 112 µM (not active)
